We go through 2 molecules from patent publication US11905254B1, “1-(3-chlorobenzylideneamino)-5,5-diphenylimidazolidine-2,4-dione as an antimicrobial compound” (KING FAISAL UNIVERSITY, priority 2023, dated 2024).

What all share (type): cell-based
One test relates to Pseudomonas aeruginosa. In words: agar plate disc-diffusion, antibacterial activity by inhibition zone. Particulars: nutrient agar, 37° C., 48 hours, DMSO control subtracted. On the procedure:
(§1) The agar plate disc-diffusion method was applied. […] The discs were then placed onto the surface of agar plates (nutrient agar for bacteria and Sabouraud's dextrose agar for fungi) seeded with the test organism. Each plate contained 15 mL of the agar medium, previously seeded with 0.2 mL of the broth culture of each organism pregrown for 18 hours. The plates were incubated at 37° C. for 48 hours, and 72 hours for fungi. The inhibition zones was measured in millimeter. Discs impregnated with DMSO were used as a control, and its inhibition zone was subtracted from the tested compound actual inhibition zone.
(§2) The results of the antimicrobial testing can be observed in Tables 1 and 2, below, with ciprofloxacin serving as a reference.

The subject of the next test is Escherichia coli. The description is as above. Particulars: nutrient agar, 37° C., 48 hours, DMSO control subtracted. On the procedure: as §1, §2
In a further test the test system is Staphylococcus aureus. The test is described as above. Particulars: nutrient agar, 37° C., 48 hours, DMSO control subtracted. On the procedure:
as §1, §2

The subject of another test is Bacillus Cereus. The description is as above. Particulars: nutrient agar, 37° C., 48 hours, DMSO control subtracted. Here is the method:
as §1, §2

The test system of test [1] is Chrysosporium keratinophilum. Description: agar plate disc-diffusion, antifungal activity by inhibition zone. Particulars: Sabouraud's dextrose agar, 37° C., 72 hours, DMSO control subtracted. Here is the method: as §1, §2
(In general: Agar diffusion results depend on both activity and mobility in agar.)

The test system of a further test is Aspergillus flavus. Described as above. Particulars: Sabouraud's dextrose agar, 37° C., 72 hours, DMSO control subtracted. Here is the method: as §1, §2
The test system of the next test is different microbes. In words: antimicrobial testing, overall statement on Tables 1 and 2. Particulars: summary of Tables 1 and 2, bacteria and fungi. Here is the method: The agar plate disc-diffusion method was applied. Sterilized filter papers (6 mm in diameter) were wetted with 10 μL of a solution of 1-(3-chlorobenzylideneamino)-5,5-diphenylimidazolidine-2,4-dione (4) to be tested, containing 10 mg/mL in DMSO, and the discs were allowed to air dry. The discs were then placed onto the surface of agar plates (nutrient agar for bacteria and Sabouraud's dextrose agar for fungi) seeded with the test organism. Each plate contained 15 mL of the agar medium, previously seeded with 0.2 mL of the broth culture of each organism pregrown for 18 hours. The plates were incubated at 37° C. for 48 hours, and 72 hours for fungi. The inhibition zones was measured in millimeter. Discs impregnated with DMSO were used as a control, and its inhibition zone was subtracted from the tested compound actual inhibition zone.
The antibacterial activity was screened against gram positive bacteria namely Bacillus cereus and Staphylococcus aureus and gram-negative bacterial strains namely Pseudomonas aeruginosa and Escherichia coli, while the antifungal activity was screened against Aspergillus flavus and Chrysosporium keratinophilum.

[2] abbreviates: A = concentration of comp. = 10,000 μL.
Setting [3] is: B = concentration of comp. = 30.000 μL.
The mark [4] stands for this setting: C = concentration of comp. = 50,000 μL.

For the molecule `O=C(O)c1cn(C2CC2)c2cc(N3CCNCC3)c(F)cc2c1=O` [Cip., ciprofloxacin, reference compound], the inhibition zone with Pseudomonas aeruginosa (setting [2]) came to 29 millimeter; in the test on Pseudomonas aeruginosa (setting [3]), 30 millimeter; in the test with Pseudomonas aeruginosa (setting [4]) it was 53 millimeter; in the test on Escherichia coli (setting [2]), 30 millimeter; with Escherichia coli (setting [3]) it was 39 millimeter; with Escherichia coli (setting [4]), 60 millimeter. Moreover, the inhibition zone in the test on Staphylococcus aureus (setting [2]) is 43 millimeter; in the test with Staphylococcus aureus (setting [3]), 44 millimeter; with Staphylococcus aureus (setting [4]), 53 millimeter; in the test on Bacillus Cereus (setting [2]), 29 millimeter; in the test with Bacillus Cereus (setting [3]) it was 30 millimeter; in the test with Bacillus Cereus (setting [4]), 42 millimeter. For the same molecule, the inhibition zone in test [1] (setting [2]) came out at 29 millimeter; in test [1] (setting [3]), 30 millimeter; in test [1] (setting [4]) it was 53 millimeter; in the test with Aspergillus flavus (setting [2]), 29 millimeter; with Aspergillus flavus (setting [3]), 30 millimeter; with Aspergillus flavus (setting [4]) it was 42 millimeter.
As for `O=C1NC(=O)C(c2ccccc2)(c2ccccc2)N1/N=C/c1cccc(Cl)c1` [Compound 4, 1-(3-chlorobenzylideneamino)-5,5-diphenylimidazolidine-2,4-dione], the inhibition zone was 23 millimeter with Pseudomonas aeruginosa (setting [2]); 24 millimeter with Pseudomonas aeruginosa (setting [3]); 42 millimeter in the test with Pseudomonas aeruginosa (setting [4]); 24 millimeter in the test with Escherichia coli (setting [2]); 30 millimeter with Escherichia coli (setting [3]); 46 millimeter with Escherichia coli (setting [4]). The inhibition zone is 24 millimeter in the test on Staphylococcus aureus (setting [2]); 30 millimeter with Staphylococcus aureus (setting [3]); 40 millimeter in the test on Staphylococcus aureus (setting [4]); 26 millimeter with Bacillus Cereus (setting [2]); 28 millimeter in the test with Bacillus Cereus (setting [3]); 39 millimeter with Bacillus Cereus (setting [4]). For the same molecule, the inhibition zone turned out to be 24 millimeter in test [1] (setting [2]); 25 millimeter in test [1] (setting [3]); 41 millimeter in test [1] (setting [4]); 20 millimeter with Aspergillus flavus (setting [2]); 24 millimeter in the test with Aspergillus flavus (setting [3]); 35 millimeter in the test on Aspergillus flavus (setting [4]). For the same molecule, the “antimicrobial activities (in words)” value with different microbes is reported as “high antimicrobial activities”.
